The experiment has as its target T1, Full-length human PRMT8 (Homo sapiens, UniProt Q9NR22).
T1 construct: Full-length human PRMT8 (NM_019854.4) isoform 1 transcript clone; made in house
As to the kind of experiment: PRMT8 biochemical assay (3H-SAM Flashplate, peptide substrate). Put shortly:
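Methylation of a biotinylated H4 (31-45) peptide by ³H-SAM was counted after streptavidin Flashplate capture. Purified recombinant PRMT8 and compound were preincubated 30 min at room temperature in Bicine buffer pH 7.6 with TCEP, BSG and Tween 20, and reactions were stopped with unlabeled SAM (final 400 μM). Inhibition versus DMSO and SAH controls was fit by 3- or 4-parameter curves.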
T1 sequence (Q9NR22 whole entry, canonical isoform): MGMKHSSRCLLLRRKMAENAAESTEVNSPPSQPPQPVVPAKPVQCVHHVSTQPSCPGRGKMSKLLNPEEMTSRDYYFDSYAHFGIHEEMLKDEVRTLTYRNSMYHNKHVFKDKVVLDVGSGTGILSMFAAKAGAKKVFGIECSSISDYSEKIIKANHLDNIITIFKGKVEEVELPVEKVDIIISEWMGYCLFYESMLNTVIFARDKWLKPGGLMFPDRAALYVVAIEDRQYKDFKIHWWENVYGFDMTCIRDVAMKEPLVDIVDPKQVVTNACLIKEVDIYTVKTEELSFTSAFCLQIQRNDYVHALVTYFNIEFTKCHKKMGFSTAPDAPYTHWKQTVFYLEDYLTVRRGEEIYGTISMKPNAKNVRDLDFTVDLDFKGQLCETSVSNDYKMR
Broadly, the IC50 is the concentration needed to halve the response being measured. Consider `CNCCN(C)Cc1c[nH]nc1-c1ccc(F)c(F)c1` [Compound 51], for which the IC50 was 101 to 1000 nM.
Under `CN(CCN)Cc1c[nH]nc1-c1ccc(OC(F)(F)F)cc1` [Compound 93] stands less than 100 nM.
Under `CN(CCN)Cc1cnn(C2COC2)c1-c1ccc(F)cc1` [Compound 81] stands 3010 to 10000 nM; under `Cc1ccc(Cl)c(-c2n[nH]cc2CN(C)CCN)c1` [Compound 91], 3010 to 10000 nM; under `COc1ccc(-c2n[nH]cc2CN(C)CCN)c(OC)c1` [Compound 87], 3010 to 10000 nM.
Turning to `CNCCN(C)Cc1c[nH]nc1-c1ccccc1O` [Compound 35], the concentration for half-maximal inhibition (IC50) is greater than 10000 nM.
Under `CNCCN(C)Cc1c[nH]nc1-c1ccccc1F` [Compound 48] stands 1010 to 3000 nM; under `CNCCN(C)Cc1c[nH]nc1-c1ccc(F)cc1` [Compound 2, N^1-((3-(4-fluorophenyl)-1H-pyrazol-4-yl)methyl)-N^1,N^2-dimethylethane-1,2-diamine], 101 to 1000 nM; under `CN(CCN)Cc1c(-c2ccc(C#N)cc2)cnn1C` [Compound 84], greater than 10000 nM.
Under `CCCN(CCN)Cc1c[nH]nc1-c1ccc(F)cc1` [Compound 63] stands 3010 to 10000 nM; under `CNCCN(C)Cc1c[nH]nc1-c1cccc(OC(F)(F)F)c1` [Compound 39], 101 to 1000 nM.
Under `CN(CCN)Cc1cnn(C)c1-c1ccc(F)cc1` [Compound 4] stands 1010 to 3000 nM.
Regarding `CN(CCN)Cc1cn(C)nc1-c1ccc(F)cc1` [Compound 3], the 50% inhibitory concentration (IC50) fell in the range of 101 to 1000 nM.
With `CCNCCN(C)Cc1c[nH]nc1-c1ccc(F)cc1` [Compound 60] the figure was 1010 to 3000 nM; with `CNCCN(C)Cc1c[nH]nc1-c1cccc(N)c1` [Compound 32], 1010 to 3000 nM.
On to `CN(CCN)Cc1c[nH]nc1-c1ccc(C#N)cc1` [Compound 68], for which the IC50 was in the range of 101 to 1000 nM.
Compound `CN(CCN)Cc1cn(CC2COC2)nc1-c1ccc(F)cc1` [Compound 79] had an IC50 greater than 10000 nM.
Regarding `CN(CCN)Cc1c[nH]nc1-c1ccc(N2CCNCC2)cc1` [Compound 82], the IC50 was in the range of 1010 to 3000 nM.
Under `CNCCN(C)Cc1c[nH]nc1-c1ccccc1-c1ccccc1` [Compound 46] stands greater than 10000 nM; under `CNCCN(C)Cc1cnn(C)c1-c1ccc(F)cc1` [Compound 10], 101 to 1000 nM; under `CNCCN(C)Cc1c[nH]nc1-c1cccc(NC(C)=O)c1` [Compound 42], 1010 to 3000 nM.
In the case of `CN(CCN)Cc1nn(C)cc1-c1ccc(C#N)cc1` [Compound 83], the IC50 is 101 to 1000 nM.
On to `CN(CCN)Cc1c[nH]nc1-c1ccc(Cl)cc1Cl` [Compound 86], for which the IC50 lay within 101 to 1000 nM.
With `CC(C)N(CCN)Cc1c[nH]nc1-c1ccc(F)cc1` [Compound 75] the figure was 1010 to 3000 nM; with `CNCCN(C)Cc1cn(CC2CCOCC2)nc1-c1ccc(F)cc1` [Compound 11], greater than 10000 nM; with `CNCCN(C)Cc1c[nH]nc1-c1ccc(OC)c(F)c1` [Compound 52], 101 to 1000 nM.
In turn, `CNCCN(C)Cc1c[nH]nc1-c1cccc(C(C)=O)c1` [Compound 44] had an IC50 of 101 to 1000 nM.
The compound `COCCn1cc(CN(C)CCN(C)C)c(-c2ccc(F)cc2)n1` [Compound 61] displayed a concentration for half-maximal inhibition (IC50) greater than 10000 nM.
With `CN(CCN)Cc1cn(C2COC2)nc1-c1ccc(F)cc1` [Compound 77] the figure was 1010 to 3000 nM; with `CNCCN(C)Cc1c[nH]nc1-c1ccc(CC#N)cc1` [Compound 34], 101 to 1000 nM; with `CCN(CCNC)Cc1c[nH]nc1-c1ccc(F)cc1` [Compound 9], 101 to 1000 nM.
With `CN(CCN)Cc1c[nH]nc1-c1cccc(C#N)c1` [Compound 70], the 50% inhibitory concentration (IC50) was in the range of 1010 to 3000 nM.
Compound `CN(CCN)Cc1cn(CC(O)CO)nc1-c1ccc(F)cc1` (stereo not shown) [Compound 76] displayed an IC50 greater than 10000 nM.
Under `CNCCN(C)Cc1c[nH]nc1-c1ccccc1Oc1ccccc1` [Compound 36] stands greater than 10000 nM; under `CN(CCN)Cc1cn(CCO)nc1-c1ccc(F)cc1` [Compound 66], 3010 to 10000 nM.
Regarding `CN(CCN)Cc1cnn(CCO)c1-c1ccc(F)cc1` [Compound 65], the concentration for half-maximal inhibition (IC50) fell in the range of 3010 to 10000 nM.
With `CNCCN(C)Cc1c[nH]nc1-c1ccccc1NS(C)(=O)=O` [Compound 41] the figure was greater than 10000 nM; with `Cc1ccc(-c2n[nH]cc2CN(C)CCN)c(C)c1` [Compound 88], 1010 to 3000 nM.
Under `CN(CCN)Cc1c[nH]nc1-c1ccc(C(C)(C)C)cc1` [Compound 74] stands 101 to 1000 nM; under `CN(CCN)Cc1c[nH]nc1-c1cccc(F)c1` [Compound 71], 101 to 1000 nM.
With `CN(CCN)Cc1c[nH]nc1-c1ccccc1F` [Compound 72] the figure was 3010 to 10000 nM.
As to `CNCCN(C)Cc1c[nH]nc1-c1c(OC)cccc1OC` [Compound 56], the half-inhibitory concentration (IC50) is greater than 10000 nM.
Under `CN(CCN)Cc1c[nH]nc1-c1ccc(OC(F)F)cc1` [Compound 94] stands 101 to 1000 nM; under `CCN(CCN)Cc1c[nH]nc1-c1ccc(F)cc1` [Compound 62], 101 to 1000 nM; under `CNCCN(C)Cc1cnn(CC2CCOCC2)c1-c1ccc(F)cc1` [Compound 12], greater than 10000 nM.
Under `CN(CCN)Cc1cnn(CC2COC2)c1-c1ccc(F)cc1` [Compound 80] stands greater than 10000 nM.
In turn, `CNCCN(C)Cc1c[nH]nc1-c1cccc2ccccc12` [Compound 57] gave an IC50 of 101 to 1000 nM.
On to `CNCCN(C)Cc1c[nH]nc1-c1ccc(F)cc1F` [Compound 49], for which the IC50 was 101 to 1000 nM.
With `CNCCN(C)Cc1c[nH]nc1-c1cc(Cl)ccc1OC` [Compound 53] the figure was greater than 10000 nM.
Under `CN(CCN)Cc1c[nH]nc1-c1ccccc1` [Compound 73] stands 101 to 1000 nM; under `Cc1ccc(-c2n[nH]cc2CN(C)CCN)c(Cl)c1` [Compound 90], 1010 to 3000 nM.
With `COCCn1ncc(CN(C)CCN(C)C)c1-c1ccc(F)cc1` [Compound 64] the figure was greater than 10000 nM; with `CNCCN(C)Cc1c[nH]nc1-c1cc(F)ccc1F` [Compound 50], 1010 to 3000 nM; with `CNCCN(C)Cc1c[nH]nc1-c1cccc(OC)c1OC` [Compound 54], 3010 to 10000 nM.
In the case of `CN(CCN)Cc1c[nH]nc1-c1ccc(F)cc1Cl` [Compound 89], the 50% inhibitory concentration (IC50) fell in the range of 1010 to 3000 nM.
On to `CNCCN(C)Cc1c[nH]nc1-c1ccc(-c2ccccc2)cc1` [Compound 47], for which the concentration for half-maximal inhibition (IC50) was less than 100 nM.
Under `CN(CCN)Cc1c[nH]nc1-c1ccc(C(F)(F)F)cc1C(F)(F)F` [Compound 85] stands 3010 to 10000 nM; under `CNCCN(C)Cc1cn(CCC(O)CO)nc1-c1ccc(F)cc1` (stereo not shown) [Compound 59], 3010 to 10000 nM; under `CN(CCN)Cc1c[nH]nc1-c1ccc(C(F)(F)F)cc1` [Compound 92], 101 to 1000 nM.
With `CN(CCN)Cc1n[nH]cc1-c1ccc(F)cc1` [Compound 69] the figure was 1010 to 3000 nM.
With `CNCCN(C)Cc1c[nH]nc1-c1ccc(C(=O)c2ccccc2)cc1` [Compound 45] the figure was 101 to 1000 nM.
`NCCN(Cc1c[nH]nc1-c1ccc(F)cc1)C1CC1` [Compound 78] came in with an IC50 of 1010 to 3000 nM.
For `CNCCN(C)Cc1c[nH]nc1-c1ccc2ccccc2c1` [Compound 58], the IC50 was in the range of 101 to 1000 nM.
For `CNCCN(C)Cc1c[nH]nc1-c1ccc(OC)cc1OC` [Compound 55], the IC50 is 3010 to 10000 nM.

The values are drawn from US9346761B2, “Arginine methyltransferase inhibitors and uses thereof” (Epizyme, Inc., priority 2013, dated 2016).
